Results taken from patent US11466066B2, “Variants of human BMP7 protein” (ELI LILLY AND COMPANY, priority 2017, dated 2022).

Key:
Format in all cases: cell-based
[1] = system: MFc7 mouse renal myofibroblasts; experiment: Alkaline phosphatase stimulation in MFc7 cells; conditions: 1 μg/ml pro-BMP7, 1 μM ATRA, 48 hours
Description: (§1) 3T3-L1 fibroblasts and MFc7 mouse renal myofibroblasts may be grown essentially as described in Example 2 above. After 48 hours the cells may be washed with PBS prior to the addition of either DMEM/2% dialyzed FBS or OPTI-MEM/2% dialyzed FBS medium containing control vehicle, 1 μg/ml human proBMP7 protein, 1 μM ATRA or a combination of both human BMP7 protein (1 μg/ml) and ATRA (1 μM) may be added for 48 hours. After treatment the cells may be rinsed with PBS and stored at −80° C. for approximately 20 minutes. The cells may be thawed at 37° C. for 30 minutes and 100 μl of PNPP may be added to every well. The plate may be incubated at 37° C. for 1 hour. The absorbance at 405 nm may be read on a plate reader.

[2] = system: 3T3-L1 fibroblasts; experiment: Alkaline phosphatase stimulation in 3T3-L1 cells; conditions: 1 μg/ml pro-BMP7, 1 μM ATRA, 48 hours
Description: as §1

[3] = system: MFc7 mouse renal myofibroblasts; experiment: MFc7 bioassay; conditions: EC50 of wild type BMP7 protein/EC50 of the variant; multiple amino acid changes (Table 3)
Description: MFc7 mouse renal myofibroblasts (mouse kidney fibroblast cell line) may be maintained under routine cell culture conditions in OPTI-MEM/10% FBS medium. The cells may be plated in 10 cm tissue culture plates at a seeding density of 500,000 cells/plate. After approximately 48 hours, the cells may be washed with phosphate buffered saline (PBS) prior to the addition of OPTI-MEM/2% dialyzed fetal bovine serum (FBS) medium containing 1 μg/ml BMP7 protein or 1 μg/ml of a BMP7 protein variant and incubated for 48 hours. After treatment the cells may be rinsed with PBS and stored at −80° C. for 20 minutes. After thawing the cells at 37° C. for 30 minutes 100 μl of para-nitrophenyl phosphate (PNPP) may be added. The plate may be incubated at 37° C. for 1 hour. The absorbance at 405 nm may be read utilizing a plate reader. The average relative potency (EC50 of wild type BMP7 protein/EC50 of the BMP7 protein variant) of certain human BMP7 protein variants of the present invention may be calculated based on such readings.

Molecule: Wild type human pro-BMP7: homodimers of wild type human mature BMP7 in a non-covalent complex with wild type human pro-domain [reference compound]
- fold change in alkaline phosphatase stimulation relative to control vehicle treated cells [1]: 21 fold
- fold change in alkaline phosphatase stimulation relative to control vehicle treated cells [2]: 1.2 fold

B1: Human mature BMP7 protein variant F9 (SEQ ID NO: 8): homodimer wherein each monomeric subunit has SEQ ID NO: 8 (Y65G/I86L/F93V/N110G/Y128W), disulfide linked (protein)
chain: STGSKQRSQNRSKTPKNQEALRMANVAENSSSDQRQACKKHELYVSFRDLGWQDWIIAPEGYAAGYCEGECAFPLNSYMNATNHALVQTLVHVINPETVPKPCCAPTQLGAISVLYFDDSSNVILKKWRNMVVRACGCH
modifications: homodimer, disulfide linked
- Average Relative Potency [3]: 69
